{"source": "patent US6866872B1", "about": "“Withania somnifera Dunal extracts for increasing male sperm count” (Nippon Shinyaku Co., Ltd., priority 1999, dated 2005)", "key": {"SD rats": {"tested_on": "SD rats", "assay": "Test Example 1: genital organ weights after ethynylestradiol dosing for 2 weeks", "assay_type": "in vivo, rat", "conditions": "ethynylestradiol 3 mg/kg orally once daily for 2 weeks, n = 8", "protocol": "SD rats aged 11 weeks (in groups of 8) were orally dosed with 3 mg/kg of the endocrine disturbing chemical ethynylestradiol suspended in 0.5% sodium carboxymethylcellulose (CMC) solution (ethynylestradiol 0.6 mg/mL) or, as control, 5 mL/kg of 0.5% CMC solution once daily in the morning for 2 weeks, and after the administration course, the testis, epididymis, prostate and seminal vesicle were respectively weighed.\nRat husbandry conditions: room temperature 21˜25° C., humidity 45˜60%, artificial lighting 12 hrs (7:00 a.m.˜7:00 p.m.), ventillation frequency 15/hr, solid food (CE-2, CLEA Japan Inc.) and drinking water ad libitum."}, "Slc:SD rats": {"tested_on": "Slc:SD rats", "assay": "Test Example 2: genital organ weights 1 week after ethynylestradiol dosing for 10 days", "assay_type": "in vivo, rat", "conditions": "ethynylestradiol 3 mg/kg orally once daily for 10 days, weighed 1 week after the course, n = 10", "protocol": "Slc:SD rats aged 10 weeks (in groups of 10) were orally dosed with 3 mg/kg of the endocrine disturbing chemical ethynylestradiol suspended in 0.5% sodium carboxymethylcellulose (CMC) solution (ethynylestradiol 0.3 mg/mL) or, as control, 10 mL/kg of 0.5% CMC solution once daily in the morning for 10 days, and at 1 week after the administration course, the testis, epididymis, prostate and seminal vesicle were respectively weighed.\nRat husbandry conditions: room temperature 21˜25° C., humidity 45˜60%, artificial lighting 12 hrs (7:00 a.m.˜7:00 p.m.), ventilation frequency 15/hr, solid food (CE-2, CLEA Japan Inc.) and drinking water ad libitum."}, "[1]": {"tested_on": "rats with the genital organs impaired by ethynylestradiol", "conditions": "rat, in vivo", "protocol": "Using rats with the genital organs impaired by ethynylestradiol as in Test Example 2, the sperm count and motile sperm rate were investigated.\nFrom the right epididymis, the caudal epididymis was excised and weighed with Sartorius electronic balance LC620-S. The caudal epididymis was placed in a sperm collection vial containing 5 mL of BSA-Hanks solution and cut 3 times to cause the sperm to swim out. A 0.05 mL portion of the sperm fluid was sampled and diluted with 0.95 mL of BSA-Hanks solution for use as a diluted sperm fluid. The number of non-motile sperms in the diluted sperm fluid was determined with Thoma's hemocytometer. After this counting of non-motile sperms, the vessel containing the diluted sperm fluid was immersed in hot water and, after return to room temperature, the sperms were counted with the hemocytometer. […] Using the measured values, the motile sperm rate was calculated by means of the following equation [1]. Motile sperm rate (%)=(number of sperms−number of non-motile sperms)/number of sperms×100 [1] (2) Method for Determination of Sperm Count\nThe caudal epididymis in the sperm collection vial used in the above procedure (1) was further cut to release sperms and the fluid in the vial was filtered through a nylon-mesh sieve. The stock filtrate, 0.1 mL, was diluted with 1.9 mL of formalinized saline and the number of sperms was determined with Thoma's hemocytometer. When the sperm population in the sperm sample was considered to be too small (low turbidity), the stock sperm fluid was not diluted but the vessel was directly immersed in hot water and, after reutrn to room temperature, the number of sperms was determined. Moreover, the number of sperms (sperm count) per caudal epididymis was calculated using the number of sperms determined and the dilution factor by means of the equation given below, with the value per caudal epididymis unit weight (g) being taken as the sperm count/caudal epididymis and the value per epididymis as the sperm count/epididymis.\nSperm count=measured number of sperms×dilution factor Number of sperms/caudal epididymis=number of sperms determined×dilution factor/weight of the caudal epididymis epididymis (g) Number of sperms/epididymis=(number of sperms/caudal epididymis)×weight of epididymis (g)"}}, "data": [{"compound": "C#C[C@]1(O)CC[C@H]2[C@@H]3CCc4cc(O)ccc4[C@H]3CC[C@@]21C", "note": "[Ethynylestradiol, ethynylestradiol]", "values": [{"measurement": "Epididymis weight", "setting": "SD rats", "value": 118, "unit": "mg/100 g body weight"}, {"measurement": "Prostate weight", "setting": "SD rats", "value": 77.4, "unit": "mg/100 g body weight"}, {"measurement": "Seminal vesicle weight", "setting": "SD rats", "value": 88.1, "unit": "mg/100 g body weight"}, {"measurement": "Testis weight", "setting": "SD rats", "value": 705, "unit": "mg/100 g body weight"}, {"measurement": "Epididymis weight", "setting": "Slc:SD rats", "value": "154.5 ± mg/100 gBW"}, {"measurement": "Prostate weight", "setting": "Slc:SD rats", "value": "102.3 ± mg/100 gBW"}, {"measurement": "Seminal vesicle weight", "setting": "Slc:SD rats", "value": "170.0 ± mg/100 gBW"}, {"measurement": "Testis weight", "setting": "Slc:SD rats", "value": "731.3 ± mg/100 gBW"}, {"measurement": "Caudal epididymis (weight, g)", "setting": "[1]", "value": 0.076, "unit": "g"}, {"measurement": "Motile sperm rate", "setting": "[1]", "value": "40.6 ± %"}, {"measurement": "Sperm count", "setting": "[1]", "value": "13.0 ± x10^6"}, {"measurement": "Sperm count/caudal epididymis", "setting": "[1]", "value": "160.2 ± x10^6"}, {"measurement": "Sperm count/epididymis", "setting": "[1]", "value": "88.8 ± x10^6"}]}]}
